# According to ChEMBL document CHEMBL1255438, “Comparative activities of TR-700 (torezolid) against staphylococcal blood isolates collected in Spain” (2010):
# Calls of active or inactive are those of the source. The calls are words filed in the database; no cut-off is given here.
# Legend:
# Format in all cases: functional
# [1] = system: Staphylococcus aureus; experiment: Antimicrobial activity against oxacillin-resistant Staphylococcus aureus by CLSI method
# [2] = system: Staphylococcus; experiment: Antimicrobial activity against linezolid-susceptible coagulase-negative Staphylococcus assessed as percent susceptible strain by CLSI method
# [3] = system: Staphylococcus; experiment: Antimicrobial activity against linezolid-resistant coagulase-negative Staphylococcus assessed as percent susceptible strain by CLSI method
# [4] = Antimicrobial activity against oxacillin-susceptible coagulase-negative Staphylococcus aureus assessed as percent susceptible strain by CLSI method
# [5] = system: Staphylococcus; experiment: Antimicrobial activity against oxacillin-susceptible coagulase-negative Staphylococcus aureus by CLSI method
# [6] = system: Staphylococcus; experiment: Antimicrobial activity against oxacillin-resistant coagulase-negative Staphylococcus aureus by CLSI method
# [7] = system: Staphylococcus; experiment: Antimicrobial activity against linezolid-susceptible coagulase-negative Staphylococcus by CLSI method
# [8] = system: Staphylococcus aureus; experiment: Antimicrobial activity against linezolid-susceptible Staphylococcus aureus assessed as percent susceptible strain by CLSI method
# [9] = system: Staphylococcus aureus; experiment: Antimicrobial activity against linezolid-resistant Staphylococcus aureus by CLSI method
# [10] = system: Staphylococcus aureus; experiment: Antimicrobial activity against linezolid-susceptible Staphylococcus aureus by CLSI method
# [11] = system: Staphylococcus; experiment: Antimicrobial activity against linezolid-resistant coagulase-negative Staphylococcus by CLSI method
# [12] = system: Staphylococcus aureus; experiment: Antimicrobial activity against oxacillin-susceptible Staphylococcus aureus assessed as percent susceptible strain by CLSI method
# [13] = system: Staphylococcus aureus; experiment: Antimicrobial activity against oxacillin-susceptible Staphylococcus aureus by CLSI method
# [14] = system: Staphylococcus aureus; experiment: Antimicrobial activity against methicillin-resistant Staphylococcus aureus by CLSI method
# [15] = system: Staphylococcus aureus; experiment: Antimicrobial activity against oxacillin-susceptible coagulase-negative Staphylococcus aureus assessed as inhibition of microbial growth at =< 0.25 ug/ml by CLSI method
# [16] = system: Staphylococcus; experiment: Antimicrobial activity against linezolid-susceptible coagulase-negative Staphylococcus assessed as inhibition of microbial growth at 4 ug/ml by CLSI method
# [17] = system: Staphylococcus; experiment: Antimicrobial activity against linezolid-resistant coagulase-negative Staphylococcus assessed as inhibition of microbial growth at 256 ug/ml by CLSI method
# [18] = system: Staphylococcus; experiment: Antimicrobial activity against linezolid-resistant coagulase-negative Staphylococcus assessed as inhibition of microbial growth at 64 ug/ml by CLSI method
# [19] = system: Staphylococcus; experiment: Antimicrobial activity against linezolid-resistant coagulase-negative Staphylococcus assessed as inhibition of microbial growth at 32 ug/ml by CLSI method
# [20] = system: Staphylococcus; experiment: Antimicrobial activity against linezolid-susceptible coagulase-negative Staphylococcus assessed as inhibition of microbial growth at 2 ug/ml by CLSI method
# [21] = system: Staphylococcus aureus; experiment: Antimicrobial activity against oxacillin-resistant Staphylococcus aureus assessed as inhibition of microbial growth at =< 0.25 ug/ml by CLSI method
# [22] = system: Staphylococcus aureus; experiment: Antimicrobial activity against oxacillin-resistant Staphylococcus aureus assessed as inhibition of microbial growth at 0.5 ug/ml by CLSI method
# [23] = system: Staphylococcus aureus; experiment: Antimicrobial activity against oxacillin-resistant coagulase-negative Staphylococcus aureus assessed as inhibition of microbial growth at 4 ug/ml by CLSI method
# [24] = system: Staphylococcus aureus; experiment: Antimicrobial activity against linezolid-susceptible Staphylococcus aureus assessed as inhibition of microbial growth at 2 ug/ml by CLSI method
# [25] = system: Staphylococcus aureus; experiment: Antimicrobial activity against oxacillin-susceptible Staphylococcus aureus assessed as inhibition of microbial growth at =< 0.25 ug/ml by CLSI method
# [26] = system: Staphylococcus aureus; experiment: Antimicrobial activity against linezolid-resistant Staphylococcus aureus assessed as percent susceptible strain by CLSI method
# [27] = system: Staphylococcus aureus; experiment: Antimicrobial activity against oxacillin-susceptible coagulase-negative Staphylococcus aureus assessed as inhibition of microbial growth at 0.5 ug/ml by CLSI method
# [28] = system: Staphylococcus aureus; experiment: Antimicrobial activity against oxacillin-resistant coagulase-negative Staphylococcus aureus assessed as inhibition of microbial growth at 1 ug/ml by CLSI method
# [29] = system: Staphylococcus aureus; experiment: Antimicrobial activity against linezolid-resistant Staphylococcus aureus assessed as inhibition of microbial growth at 16 ug/ml by CLSI method
# [30] = system: Staphylococcus; experiment: Antimicrobial activity against linezolid-susceptible coagulase-negative Staphylococcus assessed as inhibition of microbial growth at 0.5 ug/ml by CLSI method
# [31] = system: Staphylococcus; experiment: Antimicrobial activity against linezolid-susceptible coagulase-negative Staphylococcus assessed as inhibition of microbial growth at =< 0.25 ug/ml by CLSI method
# [32] = system: Staphylococcus aureus; experiment: Antimicrobial activity against oxacillin-susceptible Staphylococcus aureus assessed as inhibition of microbial growth at 4 ug/ml by CLSI method
# [33] = system: Staphylococcus aureus; experiment: Antimicrobial activity against oxacillin-resistant Staphylococcus aureus assessed as inhibition of microbial growth at 1 ug/ml by CLSI method
# [34] = system: Staphylococcus aureus; experiment: Antimicrobial activity against oxacillin-resistant Staphylococcus aureus assessed as inhibition of microbial growth at 2 ug/ml by CLSI method
# [35] = system: Staphylococcus aureus; experiment: Antimicrobial activity against oxacillin-resistant coagulase-negative Staphylococcus aureus assessed as inhibition of microbial growth at 2 ug/ml by CLSI method
# [36] = system: Staphylococcus; experiment: Antimicrobial activity against linezolid-susceptible coagulase-negative Staphylococcus assessed as inhibition of microbial growth at 1 ug/ml by CLSI method
# [37] = system: Staphylococcus aureus; experiment: Antimicrobial activity against linezolid-susceptible Staphylococcus aureus assessed as inhibition of microbial growth at =< 0.25 ug/ml by CLSI method
# [38] = system: Staphylococcus aureus; experiment: Antimicrobial activity against linezolid-susceptible Staphylococcus aureus assessed as inhibition of microbial growth at 0.5 ug/ml by CLSI method
# [39] = system: Staphylococcus aureus; experiment: Antimicrobial activity against oxacillin-susceptible Staphylococcus aureus assessed as inhibition of microbial growth at 1 ug/ml by CLSI method
# [40] = system: Staphylococcus aureus; experiment: Antimicrobial activity against linezolid-susceptible Staphylococcus aureus assessed as inhibition of microbial growth at 1 ug/ml by CLSI method
# [41] = system: Staphylococcus aureus; experiment: Antimicrobial activity against oxacillin-susceptible coagulase-negative Staphylococcus aureus assessed as inhibition of microbial growth at 1 ug/ml by CLSI method
# [42] = system: Staphylococcus; experiment: Antimicrobial activity against linezolid-resistant coagulase-negative Staphylococcus assessed as inhibition of microbial growth at 128 ug/ml by CLSI method
# [43] = system: Staphylococcus aureus; experiment: Antimicrobial activity against oxacillin-susceptible Staphylococcus aureus assessed as inhibition of microbial growth at 2 ug/ml by CLSI method
# [44] = system: Staphylococcus aureus; experiment: Antimicrobial activity against oxacillin-susceptible Staphylococcus aureus assessed as inhibition of microbial growth at 0.5 ug/ml by CLSI method
# [45] = system: Staphylococcus; experiment: Antimicrobial activity against linezolid-resistant coagulase-negative Staphylococcus assessed as inhibition of microbial growth at 16 ug/ml by CLSI method
# [46] = system: Staphylococcus aureus; experiment: Antimicrobial activity against oxacillin-susceptible coagulase-negative Staphylococcus aureus assessed as inhibition of microbial growth at 2 ug/ml by CLSI method
# [47] = system: Staphylococcus aureus; experiment: Antimicrobial activity against linezolid-susceptible Staphylococcus aureus assessed as inhibition of microbial growth at 4 ug/ml by CLSI method
# [48] = system: Staphylococcus aureus; experiment: Antimicrobial activity against oxacillin-resistant Staphylococcus aureus assessed as inhibition of microbial growth at 4 ug/ml by CLSI method
smiles,measurement,setting,value
CC(=O)N[C@@H]1[C@H](Oc2c3cc4cc2Oc2ccc(cc2Cl)[C@@H](O[C@@H]2O[C@@H](CO)[C@@H](O)[C@H](O)[C@@H]2NC(C)=O)[C@@H]2NC(=O)[C@H](NC(=O)[C@@H]4NC(=O)[C@H]4NC(=O)[C@@H](Cc5ccc(c(Cl)c5)O3)NC(=O)[C@H](N)c3ccc(O)c(c3)Oc3cc(O)cc4c3)c3ccc(O)c(c3)-c3c(O[C@H]4O[C@H](CO)[C@@H](O)[C@@H](O)[C@@H]4O)cc(O)cc3[C@@H](C(=O)O)NC2=O)O[C@@H](CO)[C@@H](O)[C@@H]1O,MIC90,[1],1 µg/mL
same,Activity,[2],94.5%
same,Activity,[3],80%
same,Activity,[4],100%
same,MIC50,[5],2 µg/mL
same,MIC90,[5],4 µg/mL
same,MIC50,[6],2 µg/mL
same,MIC90,[6],8 µg/mL
same,MIC50,[7],2 µg/mL
same,MIC90,[7],8 µg/mL
same,Activity,[8],100%
same,MIC50,[9],1 µg/mL
same,MIC90,[10],1 µg/mL
same,MIC50,[11],4 µg/mL
same,Activity,[12],100%
same,MIC50,[13],≤ 0.5 µg/mL
same,MIC90,[13],1 µg/mL
same,Activity,[14],Active
CC(=O)NC[C@H]1CN(c2ccc(N3CCOCC3)c(F)c2)C(=O)O1 [LINEZOLID],MIC50,[1],2 µg/mL
same,MIC90,[1],4 µg/mL
same,Activity,[2],100%
same,Activity,[3],0%
same,inhibition (INH),[15],4.9%
same,inhibition at 4 µg/mL,[16],100%
same,inhibition at 256 µg/mL,[17],100%
same,Activity,[4],100%
same,inhibition at 64 µg/mL,[18],80%
same,MIC50,[5],1 µg/mL
same,MIC90,[5],2 µg/mL
same,inhibition at 32 µg/mL,[19],60%
same,inhibition at 2 µg/mL,[20],99%
same,inhibition (INH),[21],2%
same,MIC50,[6],1 µg/mL
same,MIC90,[6],2 µg/mL
same,inhibition at 0.5 µg/mL,[22],4%
same,inhibition at 4 µg/mL,[23],100%
same,inhibition at 2 µg/mL,[24],91.1%
same,inhibition (INH),[25],0.5%
same,Activity,[26],0%
same,MIC50,[7],1 µg/mL
same,MIC90,[7],2 µg/mL
same,Activity,[8],100%
same,inhibition at 0.5 µg/mL,[27],9.8%
same,inhibition at 1 µg/mL,[28],81.6%
same,MIC50,[9],16 µg/mL
same,inhibition at 16 µg/mL,[29],100%
same,inhibition at 0.5 µg/mL,[30],8%
same,inhibition (INH),[31],3%
same,inhibition at 4 µg/mL,[32],100%
same,inhibition at 1 µg/mL,[33],40.5%
same,inhibition at 2 µg/mL,[34],84.6%
same,inhibition at 2 µg/mL,[35],98.7%
same,inhibition at 1 µg/mL,[36],80.4%
same,inhibition (INH),[37],1.3%
same,MIC50,[10],2 µg/mL
same,MIC90,[10],2 µg/mL
same,inhibition at 0.5 µg/mL,[38],2.4%
same,MIC50,[11],16 µg/mL
same,inhibition at 1 µg/mL,[39],51%
same,inhibition at 1 µg/mL,[40],45.2%
same,inhibition at 1 µg/mL,[41],75.6%
same,inhibition at 128 µg/mL,[42],80%
same,Activity,[12],100%
same,inhibition at 2 µg/mL,[43],99%
same,MIC50,[13],1 µg/mL
same,MIC90,[13],2 µg/mL
same,inhibition at 0.5 µg/mL,[44],0.5%
same,inhibition at 16 µg/mL,[45],60%
same,inhibition at 2 µg/mL,[46],100%
same,inhibition at 4 µg/mL,[47],100%
same,MIC,[14],16 µg/mL
same,inhibition at 4 µg/mL,[48],100%
